Data from PMC7402526, “An in vitro quantitative systems pharmacology approach for deconvolving mechanisms of drug-induced, multilineage cytopenias” (PLoS Computational Biology, 2020).

Columns and labels:
[1] = test system: hematopoietic stem cells (HSCs); assay: Multi-lineage toxicity assay (MLTA), HSCs: concentration-response and QSP model fit; format: cell-based, human; design: EmaxAP,HSC / EmaxT,HSC / Emax_drug_HSC: unitless, 0–2; ≤1 anti-proliferative, >1 adds cell killing
Summary of the method: (§1)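 Freeze-thawed primary human bone marrow CD34+ cells were grown in SFEM II with a multi-lineage cytokine cocktail, drug added day 0, six days at 37°C. Lineage counts came from 17-parameter flow with TruCount beads, vehicle-normalized per donor, then fitted by an Emax-based QSP model.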

[2] = test system: granulocyte-macrophage progenitor (GMPs); assay: MLTA, GMPs: concentration-response and QSP model fit; format: cell-based, human; conditions: Homo sapiens, 144 h
Summary of the method: as §1

granulocytes (Gran-lin) = assay: MLTA, Gran: concentration-response and QSP model fit; format: cell-based, human; conditions: Homo sapiens, 144 h
Summary of the method: (§2)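 Drug was added at time 0 to thawed human bone marrow CD34+ cells in SFEM II plus a cytokine cocktail. After 6 days at 37°C, subsets were counted by surface-marker flow with TruCount beads. Vehicle-normalized, donor-pooled data then fed an Emax model separating anti-proliferative from cell-killing effects.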

monocytes (monocyte-lin) = assay: MLTA, Mono: concentration-response and QSP model fit; format: cell-based, human; conditions: Homo sapiens, Monocyte, 144 h
Summary of the method: as §2

MK cells (MK-lin) = assay: MLTA, MK: concentration-response and QSP model fit; format: cell-based, human; conditions: Homo sapiens, 144 h
Summary of the method: as §1

[3] = test system: lymphocyte progenitors (LymP); assay: MLTA, LymP: concentration-response and QSP model fit; format: cell-based, human; conditions: Homo sapiens, Lymphocyte, 144 h
Summary of the method: as §1

B cells (B-lin) = assay: MLTA, B-lin: concentration-response and QSP model fit; format: cell-based, human; conditions: Homo sapiens, B-cell, 144 h
Summary of the method: as §1

[4] = test system: total dead cells (totalDeadCells); assay: MLTA, total dead cells concentration-response; format: cell-based; conditions: Homo sapiens, 144 h, 6 days, normalized to vehicle control, read-out: total_dead normalized cell count
Summary of the method: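 Freeze-thawed primary human bone marrow CD34+ cells in SFEM II with cytokine cocktail, drug added day 0, 6 days at 37°C, 5% CO2. Live/dead counts by 17-parameter flow cytometry with DAPI exclusion, bead-normalized, volume-corrected to cells/mL. Normalized per donor to mean of six vehicle wells; 2–7 donors pooled.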

[5] = QSP model fit of 6-day MLTA data

`CN(C)C(=O)c1cc2cnc(Nc3ccc(N4CCNCC4)cn3)nc2n1C1CCCC1` [ribociclib] showed an EC50 ([1]; Homo sapiens, Hematopoietic stem cell, 144 h, QSP model fit of 6-day MLTA data) of 373 nM, an activity at 0.0002 µM ([1]; Homo sapiens, Hematopoietic stem cell, 144 h, dose 0.2 nM, 6 days, normalized to vehicle control, read-out: HSCs normalized cell count) of 90.3% and an activity at 0.001 µM ([1]; Homo sapiens, Hematopoietic stem cell, 144 h, dose 1 nM, 6 days, normalized to vehicle control, read-out: HSCs normalized cell count) of 93.9%. The activity at 0.005 µM ([1]; Homo sapiens, Hematopoietic stem cell, 144 h, dose 5 nM, 6 days, normalized to vehicle control, read-out: HSCs normalized cell count) was 107%, the activity at 0.025 µM ([1]; Homo sapiens, Hematopoietic stem cell, 144 h, dose 25 nM, 6 days, normalized to vehicle control, read-out: HSCs normalized cell count) was 98.7% and the activity at 0.1 µM ([1]; Homo sapiens, Hematopoietic stem cell, 144 h, dose 100 nM, 6 days, normalized to vehicle control, read-out: HSCs normalized cell count) was 89.4%. The activity at 0.5 µM ([1]; Homo sapiens, Hematopoietic stem cell, 144 h, dose 500 nM, 6 days, normalized to vehicle control, read-out: HSCs normalized cell count) was 67.7%, the activity at 2.5 µM ([1]; Homo sapiens, Hematopoietic stem cell, 144 h, dose 2500 nM, 6 days, normalized to vehicle control, read-out: HSCs normalized cell count) was 35.2% and the Emax ([1]; Homo sapiens, Hematopoietic stem cell, 144 h, parameter from QSP model fitting, read-out: Emax_drug_HSC) was 48.9%. For the same molecule, the “EmaxAP,HSC” value ([1]; anti-proliferation component, min(1, EmaxT)) was 0.489, the EC50 [2, 5] was 141 nM and the activity at 0.0002 µM ([2]; dose 0.2 nM, 6 days, normalized to vehicle control, read-out: GMPs normalized cell count) was 91.2%. The activity at 0.001 µM ([2]; dose 1 nM, 6 days, normalized to vehicle control, read-out: GMPs normalized cell count) was 92.5%, the activity at 0.005 µM ([2]; dose 5 nM, 6 days, normalized to vehicle control, read-out: GMPs normalized cell count) was 103% and the activity at 0.025 µM ([2]; dose 25 nM, 6 days, normalized to vehicle control, read-out: GMPs normalized cell count) was 85%. It also gave an activity at 0.1 µM ([2]; dose 100 nM, 6 days, normalized to vehicle control, read-out: GMPs normalized cell count) of 73.4%, an activity at 0.5 µM ([2]; dose 500 nM, 6 days, normalized to vehicle control, read-out: GMPs normalized cell count) of 54.4% and an activity at 2.5 µM ([2]; dose 2500 nM, 6 days, normalized to vehicle control, read-out: GMPs normalized cell count) of 29.5%. The activity at 0.0002 µM (granulocytes (Gran-lin); dose 0.2 nM, 6 days, normalized to vehicle control, read-out: Gran normalized cell count) was 92.9%, the activity at 0.001 µM (granulocytes (Gran-lin); dose 1 nM, 6 days, normalized to vehicle control, read-out: Gran normalized cell count) was 98.1% and the activity at 0.005 µM (granulocytes (Gran-lin); dose 5 nM, 6 days, normalized to vehicle control, read-out: Gran normalized cell count) was 109%. It also gave an activity at 0.025 µM (granulocytes (Gran-lin); dose 25 nM, 6 days, normalized to vehicle control, read-out: Gran normalized cell count) of 74.6%, an activity at 0.1 µM (granulocytes (Gran-lin); dose 100 nM, 6 days, normalized to vehicle control, read-out: Gran normalized cell count) of 50.7% and an activity at 0.5 µM (granulocytes (Gran-lin); dose 500 nM, 6 days, normalized to vehicle control, read-out: Gran normalized cell count) of 23.7%. It also gave an activity at 2.5 µM (granulocytes (Gran-lin); dose 2500 nM, 6 days, normalized to vehicle control, read-out: Gran normalized cell count) of 6.7%, an Emax (granulocytes (Gran-lin); parameter from QSP model fitting, read-out: Emax_drug_Gran) of 0.0359% and an EC50 (monocytes (monocyte-lin); [5]) of 180 nM. For the same molecule, the activity at 0.0002 µM (monocytes (monocyte-lin); dose 0.2 nM, 6 days, normalized to vehicle control, read-out: Mon normalized cell count) was 84.3%, the activity at 0.001 µM (monocytes (monocyte-lin); dose 1 nM, 6 days, normalized to vehicle control, read-out: Mon normalized cell count) was 96.7% and the activity at 0.005 µM (monocytes (monocyte-lin); dose 5 nM, 6 days, normalized to vehicle control, read-out: Mon normalized cell count) was 92.1%. For the same molecule, the activity at 0.025 µM (monocytes (monocyte-lin); dose 25 nM, 6 days, normalized to vehicle control, read-out: Mon normalized cell count) was 78.1%, the activity at 0.1 µM (monocytes (monocyte-lin); dose 100 nM, 6 days, normalized to vehicle control, read-out: Mon normalized cell count) was 55.4% and the activity at 0.5 µM (monocytes (monocyte-lin); dose 500 nM, 6 days, normalized to vehicle control, read-out: Mon normalized cell count) was 31.4%. It also gave an activity at 2.5 µM (monocytes (monocyte-lin); dose 2500 nM, 6 days, normalized to vehicle control, read-out: Mon normalized cell count) of 8.51%, an Emax (monocytes (monocyte-lin); parameter from QSP model fitting, read-out: Emax_drug_Mono) of 19.5% and an EC50 (MK cells (MK-lin); [5]) of 2040 nM. The activity at 0.0002 µM (MK cells (MK-lin); dose 0.2 nM, 6 days, normalized to vehicle control, read-out: MK normalized cell count) was 102%, the activity at 0.001 µM (MK cells (MK-lin); dose 1 nM, 6 days, normalized to vehicle control, read-out: MK normalized cell count) was 98.3% and the activity at 0.005 µM (MK cells (MK-lin); dose 5 nM, 6 days, normalized to vehicle control, read-out: MK normalized cell count) was 91.7%. It also gave an activity at 0.025 µM (MK cells (MK-lin); dose 25 nM, 6 days, normalized to vehicle control, read-out: MK normalized cell count) of 83.6%, an activity at 0.1 µM (MK cells (MK-lin); dose 100 nM, 6 days, normalized to vehicle control, read-out: MK normalized cell count) of 101% and an activity at 0.5 µM (MK cells (MK-lin); dose 500 nM, 6 days, normalized to vehicle control, read-out: MK normalized cell count) of 64.4%. For the same molecule, the activity at 2.5 µM (MK cells (MK-lin); dose 2500 nM, 6 days, normalized to vehicle control, read-out: MK normalized cell count) was 27.7%, the Emax (MK cells (MK-lin); parameter from QSP model fitting, read-out: Emax_drug_MK) was 4.81% and the activity at 0.0002 µM ([3]; dose 0.2 nM, 6 days, normalized to vehicle control, read-out: LymP normalized cell count) was 87.8%. For the same molecule, the activity at 0.001 µM ([3]; dose 1 nM, 6 days, normalized to vehicle control, read-out: LymP normalized cell count) was 95.2%, the activity at 0.005 µM ([3]; dose 5 nM, 6 days, normalized to vehicle control, read-out: LymP normalized cell count) was 100% and the activity at 0.025 µM ([3]; dose 25 nM, 6 days, normalized to vehicle control, read-out: LymP normalized cell count) was 61.7%. For the same molecule, the activity at 0.1 µM ([3]; dose 100 nM, 6 days, normalized to vehicle control, read-out: LymP normalized cell count) was 39.1%, the activity at 0.5 µM ([3]; dose 500 nM, 6 days, normalized to vehicle control, read-out: LymP normalized cell count) was 17.4% and the activity at 2.5 µM ([3]; dose 2500 nM, 6 days, normalized to vehicle control, read-out: LymP normalized cell count) was 4.31%. It also gave an Emax ([3]; parameter from QSP model fitting, read-out: Emax_drug_LymP) of 0.032%, an EC50 (B cells (B-lin); [5]) of 35.8 nM and an activity at 0.0002 µM (B cells (B-lin); dose 0.2 nM, 6 days, normalized to vehicle control, read-out: B-lin normalized cell count) of 74.3%. The activity at 0.001 µM (B cells (B-lin); dose 1 nM, 6 days, normalized to vehicle control, read-out: B-lin normalized cell count) was 107%, the activity at 0.005 µM (B cells (B-lin); dose 5 nM, 6 days, normalized to vehicle control, read-out: B-lin normalized cell count) was 79.4% and the activity at 0.025 µM (B cells (B-lin); dose 25 nM, 6 days, normalized to vehicle control, read-out: B-lin normalized cell count) was 61.2%. The activity at 0.1 µM (B cells (B-lin); dose 100 nM, 6 days, normalized to vehicle control, read-out: B-lin normalized cell count) was 46.3%, the activity at 0.5 µM (B cells (B-lin); dose 500 nM, 6 days, normalized to vehicle control, read-out: B-lin normalized cell count) was 28% and the activity at 2.5 µM (B cells (B-lin); dose 2500 nM, 6 days, normalized to vehicle control, read-out: B-lin normalized cell count) was 28.3%. For the same molecule, the Emax (B cells (B-lin); parameter from QSP model fitting, read-out: Emax_drug_B) was 30.5%, the activity at 0.0002 µM ([4]; dose 0.2 nM) was 117% and the activity at 0.001 µM ([4]; dose 1 nM) was 117%. It also gave an activity at 0.005 µM ([4]; dose 5 nM) of 129%, an activity at 0.025 µM ([4]; dose 25 nM) of 81.1% and an activity at 0.1 µM ([4]; dose 100 nM) of 60%. It also gave an activity at 0.5 µM ([4]; dose 500 nM) of 32.1% and an activity at 2.5 µM ([4]; dose 2500 nM) of 27.8%.
